Assay results as given in patent US20240109881A1, “Heteroaryl Compounds as Ligand Directed Degraders of IRAK4” (Bristol-Myers Squibb Company, priority 2022, published 2024).

Molecular target: T1, IRAK4 (Homo sapiens, UniProt Q9NWZ3)
T1 construct: endogenous in cells; host or cells: THP-1 cells
T1 sequence (Q9NWZ3 1-460): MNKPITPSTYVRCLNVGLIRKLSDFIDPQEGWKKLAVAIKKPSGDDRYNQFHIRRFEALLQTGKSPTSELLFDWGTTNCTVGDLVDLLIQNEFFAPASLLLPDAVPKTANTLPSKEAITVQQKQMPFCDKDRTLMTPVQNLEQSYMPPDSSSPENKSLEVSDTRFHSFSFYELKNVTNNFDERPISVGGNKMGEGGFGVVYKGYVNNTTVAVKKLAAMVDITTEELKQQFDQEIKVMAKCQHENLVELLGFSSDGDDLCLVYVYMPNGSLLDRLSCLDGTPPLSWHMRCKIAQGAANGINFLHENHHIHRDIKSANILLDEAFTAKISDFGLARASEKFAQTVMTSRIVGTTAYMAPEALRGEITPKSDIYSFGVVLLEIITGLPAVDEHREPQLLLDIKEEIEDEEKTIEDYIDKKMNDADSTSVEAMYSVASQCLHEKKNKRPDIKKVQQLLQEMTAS
Assay: LVL THP1 HTRF (THP1 Homogeneous Time Resolved Fluorescence)
Format: cell-based
Conditions: THP1 cells, 18 h incubation with compound; for DC50: read-out: LVL THP1 HTRF EC50
In short: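 THP-1 cells in phenol red-free RPMI with 10% FBS were dosed with compound (20 nL in DMSO) for 18 h at 37° C. After 2 h lysis, IRAK4 was detected with anti-IRAK4-d2/anti-IRAK4-K HTRF antibodies for 18 h at room temperature and read at 665/615 nm; a parallel CTG plate was run.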

C[C@H](C#N)Nc1cc(-n2ncc3cc(C#N)cnc32)ncc1-n1cc([C@H]2CC[C@H](CCN3CC[C@H]4[C@@H]3CCN4c3ccc(N4CCC(=O)NC4=O)c(Cl)c3)CC2)nn1 (single isomer, unassigned) [P-464]
LVL THP1 HTRF YMIN: −7.1%
DC50: 0.7 nM

Cc1cc(N2CC[C@H]3[C@@H]2CCN3CC[C@H]2CC[C@H](c3cn(-c4cnc(-n5ncc6cc(C#N)cnc65)cc4N[C@H](C)C#N)nn3)CC2)ccc1N1CCC(=O)NC1=O (single isomer, unassigned) [P-470]
LVL THP1 HTRF YMIN: 10.6%
DC50: 29.7 nM

Cc1cc(N2CC[C@H]3[C@@H]2CCN3CC[C@H]2CC[C@H](c3cn(-c4cnc(-n5ncc6cc(C#N)cnc65)cc4N[C@H](C)C#N)nn3)CC2)ccc1N1CCC(=O)NC1=O (single isomer, unassigned) [P-474]
LVL THP1 HTRF YMIN: 5.0%
DC50: 70 nM

C[C@H](C#N)Nc1cc(-n2ncc3cc(C#N)cnc32)ncc1-n1cc([C@H]2CC[C@H](CCN3CC[C@H]4[C@@H]3CCN4c3ccc(N4CCC(=O)NC4=O)c(Cl)c3)CC2)nn1 (single isomer, unassigned) [P-478]
LVL THP1 HTRF YMIN: 17.1%
DC50: 161 nM

C[C@H](C#N)Nc1cc(-n2ncc3cc(C#N)cnc32)ncc1-n1cc([C@H]2CC[C@H](CCN3CC[C@H]4[C@@H]3CCN4c3ccc(N4CCC(=O)NC4=O)c(F)c3)CC2)nn1 (single isomer, unassigned) [P-480]
LVL THP1 HTRF YMIN: 0.8%
DC50: 26 nM

C[C@H](C#N)Nc1cc(-n2ncc3cc(C#N)c(N)nc32)ncc1-n1cc([C@H]2CC[C@H](CCN3CC[C@H]4[C@@H]3CCN4c3ccc([C@@]4(C)CCC(=O)NC4=O)cc3)CC2)nn1 (single isomer, unassigned) [P-487]
LVL THP1 HTRF YMIN: 2.7%
DC50: 8 nM

C[C@H](C#N)Nc1cc(-n2ncc3cc(C#N)cnc32)ncc1C(=O)N[C@H]1CC[C@@H](CCN2CC[C@H]3[C@@H]2CCN3c2ccc(N3CCC(=O)NC3=O)c(Cl)c2)CC1 (single isomer, unassigned) [P-488]
LVL THP1 HTRF YMIN: 41.7%
DC50: 4440 nM

C[C@H](C#N)Nc1cc(-n2ncc3cc(C#N)cnc32)ncc1-n1cc([C@H]2CC[C@H](CCN3CCC(c4ccc(N5CCC(=O)NC5=O)cc4)C3)CC2)nn1 (single isomer, unassigned) [P-491]
LVL THP1 HTRF YMIN: 14.9%
DC50: 156 nM

C[C@H](C#N)Nc1cc(-n2ncc3cc(C#N)cnc32)ncc1C(=O)N[C@H]1CC[C@H](CCN2CC[C@H]3[C@@H]2CCN3c2ccc([C@@]3(C)CCC(=O)NC3=O)cc2)CC1 (single isomer, unassigned) [P-492]
LVL THP1 HTRF YMIN: −0.2%
DC50: 35 nM

C[C@H](C#N)Nc1cc(-n2ncc3cc(C#N)cnc32)ncc1-n1cc([C@H]2CC[C@H](CCN3CC[C@H]4[C@@H]3CN4c3ccc(N4CCC(=O)NC4=O)cc3)CC2)nn1 (single isomer, unassigned) [P-494]
LVL THP1 HTRF YMIN: 21.2%
DC50: 110 nM

C[C@H](C#N)Nc1cc(-n2ncc3cc(C#N)cnc32)ncc1-n1cc([C@H]2CC[C@H](CCN3CC[C@@H]4[C@H]3CN4c3ccc(N4CCC(=O)NC4=O)cc3)CC2)nn1 (single isomer, unassigned) [P-495]
LVL THP1 HTRF YMIN: 2.7%
DC50: 110 nM

C[C@H](C#N)Nc1cc(-n2ncc3cc(C#N)cnc32)ncc1-n1cc([C@H]2CC[C@H](CCN3CCC(c4ccc(N5CCC(=O)NC5=O)cc4)C3)CC2)nn1 (single isomer, unassigned) [P-497]
LVL THP1 HTRF YMIN: 13.6%
DC50: 239 nM

C[C@H](C#N)Nc1cc(Nc2ncc(C#N)cc2Cl)ncc1-n1cc([C@H]2CC[C@H](CCN3CC[C@H]4[C@@H]3CCN4c3ccc(N4CCC(=O)NC4=O)cc3)CC2)nn1 (single isomer, unassigned) [P-500]
LVL THP1 HTRF YMIN: −0.52%
DC50: 43.4 nM

C[C@H](C#N)Nc1cc(Nc2ncc(C#N)cc2Cl)ncc1-n1cc([C@H]2CC[C@H](CCN3CCN(c4ccc(N5CCC(=O)NC5=O)cc4)[C@@H]4COC[C@@H]43)CC2)nn1 (single isomer, unassigned) [P-503]
LVL THP1 HTRF YMIN: 82.16%
DC50: 1000 nM

C[C@H](C#N)Nc1cc(-n2ncc3cc(C#N)cnc32)ncc1-n1cc(C2CCC(CCN3CCN(c4ccc(N5CCC(=O)NC5=O)cc4)[C@@H]4CCC[C@@H]43)CC2)nn1 (single isomer, unassigned) [P-505]
LVL THP1 HTRF YMIN: 9.83%
DC50: 197 nM

C[C@H](C#N)Nc1cc(Nc2ncc(C#N)cc2Cl)ncc1-n1cc([C@H]2CC[C@H](CCN3CCN(c4ccc(N5CCC(=O)NC5=O)cc4)[C@@H]4CCC[C@@H]43)CC2)nn1 (single isomer, unassigned) [P-506]
LVL THP1 HTRF YMIN: 65.39%
DC50: 1000 nM

C[C@H](C#N)Nc1cc(Nc2ncc(C#N)cc2F)ncc1-n1cc([C@H]2CC[C@H](CCN3CC[C@H]4[C@@H]3CCN4c3ccc(N4CCC(=O)NC4=O)cc3)CC2)nn1 (single isomer, unassigned) [P-507]
LVL THP1 HTRF YMIN: −1.72%
DC50: 62.8 nM

C[C@H](C#N)Nc1cc(-n2ncc3ccc(N4C[C@H]5C[C@@H]4CO5)nc32)ncc1-n1cc([C@H]2CC[C@H](CCN3CCC(c4ccc([C@@]5(F)CCC(=O)NC5=O)cc4)CC3)CC2)nn1 (single isomer, unassigned) [P-513]
LVL THP1 HTRF YMIN: 5.2%
DC50: 8 nM

C[C@H](C#N)Nc1cc(-n2ncc3cc(C#N)c(N)nc32)ncc1-n1cc([C@H]2CC[C@H](CCN3CCN(c4ccc([C@@]5(C)CCC(=O)NC5=O)cc4)[C@H](C)C3)CC2)nn1 (stereo in doubt) [P-260]
LVL THP1 HTRF YMIN: 7.6%
DC50: 17 nM

C[C@H](C#N)Nc1cc(-n2ncc3cc(C#N)cnc32)ncc1-n1cc([C@H]2CC[C@H](CCN3CCC(c4ccc([C@@]5(C)CCC(=O)NC5=O)cc4)C(F)C3)CC2)nn1 (stereo in doubt) [P-310]
LVL THP1 HTRF YMIN: 1.3%
DC50: 3.6 nM

CC[C@H](C#N)Nc1cc(-n2ncc3cc(C#N)cnc32)ncc1-n1cc([C@H]2CC[C@H](CCN3CCN(c4ccc(C5CCC(=O)NC5=O)cc4)CC3)CC2)nn1 (stereo in doubt) [P-392]
LVL THP1 HTRF YMIN: 3.5%
DC50: 8.7 nM

N#Cc1cnc2c(cnn2-c2cc(N[C@@H]3CCOC3)c(-n3cc([C@H]4CC[C@H](CCN5CCN(c6ccc(C7CCC(=O)NC7=O)cc6)CC5)CC4)nn3)cn2)c1 (stereo in doubt) [P-405]
LVL THP1 HTRF YMIN: 3.1%
DC50: 4.8 nM

O=C1CCC(N2C(=O)c3ccc(NCCCNC(=O)C4CCC(NC(=O)c5cnc(Nc6ccc7ncsc7c6)cc5NC5CCCC5)CC4)cc3C2=O)C(=O)N1 (stereo not drawn) [P-1]
LVL THP1 HTRF YMIN: 33.3%
DC50: 148 nM

CC(F)(F)CNc1cc(-n2ncc3cc(C#N)cnc32)ncc1-n1cc(C2CCC(CCN3CCN(c4ccc(C5CCC(=O)NC5=O)cc4)CC3)CC2)nn1 (stereo not drawn) [P-169]
LVL THP1 HTRF YMIN: 3.0%

CC(F)(F)CNc1cc(-n2ncc3cc(C#N)cnc32)ncc1-n1cc([C@H]2CC[C@H](CCN3CCN(c4ccc(C5CCC(=O)NC5=O)cc4)CC3)CC2)nn1 (stereo partly drawn) [P-169]
DC50: 26 nM

Cc1cc(C2CCC(=O)NC2=O)ccc1N1CCN(CC[C@H]2CC[C@H](NC(=O)c3cnc(-n4ncc5cc(C#N)c(N)nc54)cc3N[C@H](C)C#N)CC2)C[C@H]1C (stereo partly drawn) [P-170]
LVL THP1 HTRF YMIN: 0.9%
DC50: 14 nM

Cc1cc(N2CCN(CC[C@H]3CC[C@H](NC(=O)c4cnc(-n5ncc6cc(C#N)c(N)nc65)cc4N[C@H](C)C#N)CC3)C[C@H]2C)ccc1C1CCC(=O)NC1=O (stereo partly drawn) [P-171]
LVL THP1 HTRF YMIN: 1.2%
DC50: 23 nM

Cc1cc(N2CCN(CC[C@H]3CC[C@H](NC(=O)c4cnc(-n5ncc6cc(C#N)c(N)nc65)cc4N[C@H](C)C#N)CC3)C[C@H]2C)ccc1C1CCC(=O)NC1=O (stereo partly drawn) [P-172]
LVL THP1 HTRF YMIN: 1.1%
DC50: 10 nM

C[C@H](C#N)Nc1cc(-n2ncc3cc(C#N)c(N)nc32)ncc1C(=O)N[C@H]1CC[C@H](CCN2CCN(c3ccc(C4CCC(=O)NC4=O)c(F)c3)[C@H](C)C2)CC1 (stereo partly drawn) [P-173]
LVL THP1 HTRF YMIN: 0.7%
DC50: 11 nM

C[C@H](C#N)Nc1cc(-n2ncc3cc(C#N)cnc32)ncc1C(=O)N[C@H]1CC[C@H](CCN2CC3CC2CN3c2ccc(C3CCC(=O)NC3=O)cc2)CC1 (stereo partly drawn) [P-179]
LVL THP1 HTRF YMIN: 2.0%
DC50: 65 nM

COc1nc2c(cnn2-c2cc(N[C@H](C)C#N)c(C(=O)N[C@H]3CC[C@H](CCN4CCN(c5ccc(C6CCC(=O)NC6=O)cc5)CC4)CC3)cn2)cc1C#N (stereo partly drawn) [P-184]
LVL THP1 HTRF YMIN: 1.3%
DC50: 51 nM

CC(F)(F)CNc1cc(-n2ncc3cc(C#N)c(N)nc32)ncc1C(=O)N[C@H]1CC[C@H](CCN2CCN(c3ccc(C4CCC(=O)NC4=O)cc3)CC2)CC1 (stereo partly drawn) [P-185]
LVL THP1 HTRF YMIN: 1.5%
DC50: 17 nM

C[C@H](C#N)Nc1cc(-n2ncc3cc(C#N)c(N)nc32)ncc1C(=O)N[C@H]1CC[C@H](CCN2CCN(c3ccc(C4CCC(=O)NC4=O)c(Cl)c3)[C@H](C)C2)CC1 (stereo partly drawn) [P-187]
LVL THP1 HTRF YMIN: 1.4%
DC50: 20 nM

CNc1nc2c(cnn2-c2cc(N[C@H](C)C#N)c(C(=O)N[C@H]3CC[C@H](CCN4CCN(c5ccc(C6CCC(=O)NC6=O)cc5)CC4)CC3)cn2)cc1C#N (stereo partly drawn) [P-188]
LVL THP1 HTRF YMIN: 1.1%
DC50: 6 nM
